Measurements published in patent publication US20220162167A1, “SUBSTITUTED BICYCLIC AND TETRACYCLIC QUINONES AND USE THEREOF AS ANTI-CANCER AGENTS” (THE REGENTS OF THE UNIVERSITY OF MICHIGAN, priority 2019, published 2022).

How the values were obtained:
Format in all cases: cell-based
HT29 = test: NCI60 growth inhibition, HT29; conditions: Colon Cancer
Procedure, shortened: (§1)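 Cell growth inhibition measured in the standard NCI 60-cancer-cell-line panel.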

SN12C = test: NCI60 growth inhibition, SN12C; conditions: Renal Cancer
Procedure, shortened: as §1

MDA-MB-231/ATCC = test: NCI60 growth inhibition, MDA-MB-231/ATCC; conditions: Breast Cancer
Procedure, shortened: as §1

786-0 = test: NCI60 growth inhibition, 786-0; conditions: Renal Cancer
Procedure, shortened: as §1

ACHN = test: NCI60 growth inhibition, ACHN; conditions: Renal Cancer
Procedure, shortened: as §1

UACC-257 = test: NCI60 growth inhibition, UACC-257; conditions: Melanoma; note: test concentration or dose not given here
Procedure, shortened: as §1

SW-620 = test: NCI60 growth inhibition, SW-620; conditions: Colon Cancer; note: test concentration or dose not given here
Procedure, shortened: as §1

HCT-15 = test: NCI60 growth inhibition, HCT-15; conditions: Colon Cancer; note: test concentration or dose not given here
Procedure, shortened: as §1

EKVX = test: NCI60 growth inhibition, EKVX; conditions: Non-Small Cell Lung Cancer
Procedure, shortened: as §1

T-47D = test: NCI60 growth inhibition, T-47D; conditions: Breast Cancer
Procedure, shortened: as §1

SNB-19 = test: NCI60 growth inhibition, SNB-19; conditions: CNS Cancer; note: test concentration or dose not given here
Procedure, shortened: as §1

A498 = test: NCI60 growth inhibition, A498; conditions: Renal Cancer; note: test concentration or dose not given here
Procedure, shortened: as §1

NCI-H322M = test: NCI60 growth inhibition, NCI-H322M; conditions: Non-Small Cell Lung Cancer
Procedure, shortened: as §1

OVCAR-5 = test: NCI60 growth inhibition, OVCAR-5; conditions: Ovarian Cancer
Procedure, shortened: as §1

K-562 = test: NCI60 growth inhibition, K-562; conditions: Leukemia
Procedure, shortened: as §1

CCRF-CEM = test: NCI60 growth inhibition, CCRF-CEM; conditions: Leukemia
Procedure, shortened: as §1

HOP-62 = test: NCI60 growth inhibition, HOP-62; conditions: Non-Small Cell Lung Cancer; note: test concentration or dose not given here
Procedure, shortened: as §1

TK-10 = test: NCI60 growth inhibition, TK-10; conditions: Renal Cancer
Procedure, shortened: as §1

MDA-MB-468 = test: NCI60 growth inhibition, MDA-MB-468; conditions: Breast Cancer; note: test concentration or dose not given here
Procedure, shortened: as §1

OVCAR-4 = test: NCI60 growth inhibition, OVCAR-4; conditions: Ovarian Cancer; note: test concentration or dose not given here
Procedure, shortened: as §1

HS 578T = test: NCI60 growth inhibition, HS 578T; conditions: Breast Cancer
Procedure, shortened: as §1

HL-60(TB) = test: NCI60 growth inhibition, HL-60(TB); conditions: Leukemia
Procedure, shortened: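 Read-out: growth inhibition in the NCI60 screen of 60 cancer cell lines.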

SK-MEL-2 = test: NCI60 growth inhibition, SK-MEL-2; conditions: Melanoma; note: test concentration or dose not given here
Procedure, shortened: as §1

HCC-2998 = test: NCI60 growth inhibition, HCC-2998; conditions: Colon Cancer
Procedure, shortened: as §1

LOX IMVI = test: NCI60 growth inhibition, LOX IMVI; conditions: Melanoma
Procedure, shortened: as §1

SK-MEL-28 = test: NCI60 growth inhibition, SK-MEL-28; conditions: Melanoma
Procedure, shortened: as §1

CAKI-1 = test: NCI60 growth inhibition, CAKI-1; conditions: Renal Cancer; note: test concentration or dose not given here
Procedure, shortened: as §1

MDA-MB-435 = test: NCI60 growth inhibition, MDA-MB-435; conditions: Melanoma
Procedure, shortened: as §1

U251 = test: NCI60 growth inhibition, U251; conditions: CNS Cancer
Procedure, shortened: as §1

NCI-H23 = test: NCI60 growth inhibition, NCI-H23; conditions: Non-Small Cell Lung Cancer
Procedure, shortened: as §1

UACC-62 = test: NCI60 growth inhibition, UACC-62; conditions: Melanoma; note: test concentration or dose not given here
Procedure, shortened: as §1

HOP-92 = test: NCI60 growth inhibition, HOP-92; conditions: Non-Small Cell Lung Cancer
Procedure, shortened: as §1

COLO 205 = test: NCI60 growth inhibition, COLO 205; conditions: Colon Cancer
Procedure, shortened: as §1

NCI-H226 = test: NCI60 growth inhibition, NCI-H226; conditions: Non-Small Cell Lung Cancer; note: test concentration or dose not given here
Procedure, shortened: as §1

SF-268 = test: NCI60 growth inhibition, SF-268; conditions: CNS Cancer; note: test concentration or dose not given here
Procedure, shortened: as §1

SK-MEL-5 = test: NCI60 growth inhibition, SK-MEL-5; conditions: Melanoma
Procedure, shortened: as §1

UO-31 = test: NCI60 growth inhibition, UO-31; conditions: Renal Cancer
Procedure, shortened: as §1

OVCAR-3 = test: NCI60 growth inhibition, OVCAR-3; conditions: Ovarian Cancer
Procedure, shortened: as §1

SR = test: NCI60 growth inhibition, SR; conditions: Leukemia
Procedure, shortened: as §1

NCI-H460 = test: NCI60 growth inhibition, NCI-H460; conditions: Non-Small Cell Lung Cancer
Procedure, shortened: as §1

NCI/ADR-RES = test: NCI60 growth inhibition, NCI/ADR-RES; conditions: Ovarian Cancer
Procedure, shortened: as §1

SNB-75 = test: NCI60 growth inhibition, SNB-75; conditions: CNS Cancer; note: test concentration or dose not given here
Procedure, shortened: as §1

MALME-3M = test: NCI60 growth inhibition, MALME-3M; conditions: Melanoma
Procedure, shortened: as §1

BT-549 = test: NCI60 growth inhibition, BT-549; conditions: Breast Cancer
Experimental: (§2) Representative compounds were tested in 60 cell lines (NCI60) at the National Cancer Institute, Developmental Therapeutics Program.
(§3) Representative compounds were tested in a panel of 60 cancer cells (NCI 60) at the National Cancer Institute. Growth inhibition are shown in table 2, table 3, table 4, table 5, and FIG. 1, FIG. 2, FIG. 3, FIG. 4, FIG. 5.

PC-3 = test: NCI60 growth inhibition, PC-3; conditions: Prostate Cancer
Procedure, shortened: as §1

A549/ATCC = test: NCI60 growth inhibition, A549/ATCC; conditions: Non-Small Cell Lung Cancer
Procedure, shortened: as §1

KM12 = test: NCI60 growth inhibition, KM12; conditions: Colon Cancer; note: test concentration or dose not given here
Procedure, shortened: as §1

SF-295 = test: NCI60 growth inhibition, SF-295; conditions: CNS Cancer; note: test concentration or dose not given here
Procedure, shortened: as §1

RPMI-8226 = test: NCI60 growth inhibition, RPMI-8226; conditions: Leukemia
Procedure, shortened: as §1

RXF 393 = test: NCI60 growth inhibition, RXF 393; conditions: Renal Cancer
Experimental: as §2, §3

HCT-116 = test: NCI60 growth inhibition, HCT-116; conditions: Colon Cancer
Procedure, shortened: as §1

MCF7 = test: NCI60 growth inhibition, MCF7; conditions: Breast Cancer
Procedure, shortened: as §1

SK-OV-3 = test: NCI60 growth inhibition, SK-OV-3; conditions: Ovarian Cancer
Procedure, shortened: as §1

DU-145 = test: NCI60 growth inhibition, DU-145; conditions: Prostate Cancer
Procedure, shortened: as §1

IGROV1 = test: NCI60 growth inhibition, IGROV1; conditions: Ovarian Cancer
Procedure, shortened: as §1

NCI-H522 = test: NCI60 growth inhibition, NCI-H522; conditions: Non-Small Cell Lung Cancer
Procedure, shortened: as §1

MOLT-4 = test: NCI60 growth inhibition, MOLT-4; conditions: Leukemia
Procedure, shortened: as §1

M14 = test: NCI60 growth inhibition, M14; conditions: Melanoma
Procedure, shortened: as §1

SF-539 = test: NCI60 growth inhibition, SF-539; conditions: CNS Cancer
Procedure, shortened: as §1

CN1CCN(c2ccc3nc4c(nc3c2C(F)(F)F)C(=O)c2ncccc2C4=O)CC1 [Compound 50, 9-(4-methylpiperazin-1-yl)-10-(trifluoromethyl)pyrido[2,3-b]phenazine-5,12-dione]
Growth inhibition (% control) GIPRCNT (HT29): −55.5144 % control
Growth inhibition (% control) GIPRCNT (SN12C): −95.418 % control
Growth inhibition (% control) GIPRCNT (MDA-MB-231/ATCC): −5.992 % control
Growth inhibition (% control) GIPRCNT (786-0): 36.69 % control
Growth inhibition (% control) GIPRCNT (ACHN): −44.1558 % control
Growth inhibition (% control) GIPRCNT (UACC-257): −82.2969 % control
Growth inhibition (% control) GIPRCNT (SW-620): 4.709 % control
Growth inhibition (% control) GIPRCNT (HCT-15): −47.4718 % control
Growth inhibition (% control) GIPRCNT (EKVX): 5.133 % control
Growth inhibition (% control) GIPRCNT (T-47D): −28.3961 % control
Growth inhibition (% control) GIPRCNT (SNB-19): 17.8598 % control
Growth inhibition (% control) GIPRCNT (A498): −21.1398 % control
Growth inhibition (% control) GIPRCNT (NCI-H322M): 36.63 % control
Growth inhibition (% control) GIPRCNT (OVCAR-5): −90.4043 % control
Growth inhibition (% control) GIPRCNT (K-562): −6.717 % control
Growth inhibition (% control) GIPRCNT (CCRF-CEM): 5.713 % control
Growth inhibition (% control) GIPRCNT (HOP-62): −63.3298 % control
Growth inhibition (% control) GIPRCNT (TK-10): 80.29 % control
Growth inhibition (% control) GIPRCNT (MDA-MB-468): −62.4106 % control
Growth inhibition (% control) GIPRCNT (OVCAR-4): −91.1398 % control
Growth inhibition (% control) GIPRCNT (HS 578T): −15.9764 % control
Growth inhibition (% control) GIPRCNT (HL-60(TB)): −50.3957 % control
Growth inhibition (% control) GIPRCNT (SK-MEL-2): −34.5495 % control
Growth inhibition (% control) GIPRCNT (HCC-2998): −26.9174 % control
Growth inhibition (% control) GIPRCNT (LOX IMVI): −50.1492 % control
Growth inhibition (% control) GIPRCNT (SK-MEL-28): 5.495 % control
Growth inhibition (% control) GIPRCNT (CAKI-1): 33.14 % control
Growth inhibition (% control) GIPRCNT (MDA-MB-435): −91.762 % control
Growth inhibition (% control) GIPRCNT (U251): 0.9108 % control
Growth inhibition (% control) GIPRCNT (NCI-H23): −39.656 % control
Growth inhibition (% control) GIPRCNT (UACC-62): −82.4675 % control
Growth inhibition (% control) GIPRCNT (HOP-92): 27.5 % control
Growth inhibition (% control) GIPRCNT (COLO 205): −94.9856 % control
Growth inhibition (% control) GIPRCNT (NCI-H226): −78.8735 % control
Growth inhibition (% control) GIPRCNT (SF-268): 1.957 % control
Growth inhibition (% control) GIPRCNT (SK-MEL-5): −99.7024 % control
Growth inhibition (% control) GIPRCNT (UO-31): −19.0631 % control
Growth inhibition (% control) GIPRCNT (OVCAR-3): −27.9399 % control
Growth inhibition (% control) GIPRCNT (SR): −27.1607 % control
Growth inhibition (% control) GIPRCNT (NCI-H460): −56.5637 % control
Growth inhibition (% control) GIPRCNT (NCI/ADR-RES): 10.14 % control
Growth inhibition (% control) GIPRCNT (SNB-75): 5.296 % control
Growth inhibition (% control) GIPRCNT (MALME-3M): −99.1953 % control
Growth inhibition (% control) GIPRCNT (BT-549): −97.0139 % control
Growth inhibition (% control) GIPRCNT (PC-3): 8.007 % control
Growth inhibition (% control) GIPRCNT (A549/ATCC): −36.1751 % control
Growth inhibition (% control) GIPRCNT (KM12): 13 % control
Growth inhibition (% control) GIPRCNT (SF-295): −61.5894 % control
Growth inhibition (% control) GIPRCNT (RPMI-8226): 27.57 % control
Growth inhibition (% control) GIPRCNT (RXF 393): 38.36 % control
Growth inhibition (% control) GIPRCNT (HCT-116): 0.9838 % control
Growth inhibition (% control) GIPRCNT (MCF7): −57.016 % control
Growth inhibition (% control) GIPRCNT (SK-OV-3): 29.68 % control
Growth inhibition (% control) GIPRCNT (DU-145): −85.7143 % control
Growth inhibition (% control) GIPRCNT (IGROV1): −32.57 % control
Growth inhibition (% control) GIPRCNT (NCI-H522): −67.5222 % control
Growth inhibition (% control) GIPRCNT (MOLT-4): −36.4229 % control
Growth inhibition (% control) GIPRCNT (M14): −89.6374 % control
Growth inhibition (% control) GIPRCNT (SF-539): −52.4375 % control
